Test results from patent publication US4313943A, “7-Chloro-2,3-dihydro-5-phenyl-1-propargyl-1H-1,4-benzodiazepine-2-one, and a pharmaceutical composition thereof” (priority 1972, dated 1982).
Several values for one entry are separate records, joined by “and”; a condition that tells them apart may be missing. Equal entries are not always repeated.

Key:
[1] = Rotarod test, equilibrium (Table 6); type: in vivo
[2] = Comparative tranquilizing effects: four plates test; type: in vivo
Source text: The method utilized was the 4 plates test of J. R. Boissier, et al (European J. of Pharm. 1968, Vol. 4, pages 145-151).

[3] = Potentiation of narcotic effect of Veronal; conditions: in vivo
[4] = Acute toxicity comparison (LD50, Litchfield and Wilcoxan); conditions: in vivo
Procedure: Toxicity in test animals to the test compounds in terms of LD50 after oral and intraperitoneal administration was determined according to the procedure of Litchfield and Wilcoxan (1949) and the hypnotic effect on test animals was determined in accordance with the method of Janssen (1959).

[5] = Motor coordination in rats (rotarod, Dunham and Miya 1957)
[6] = Conditioned avoidance response (shuttle box); type: in vivo; conditions: for Number of Conditioned Avoidance Responses: CMC 1% 16.7 ± 0.3
Procedure: Conditioned avoidance response by trained animals in a conventional shuttle box procedure was determined after oral administration of Compounds 1 and 4.

[7] = ECoG and sedation in test animals free to move; type: in vivo
Procedure: Some test animals were kept in restraint cases placed in a relatively soundproof room and some were left free to move in metal cases measuring 40×50×30 cm, which were also kept in a relatively quiet environment.
In the test animals which were free to move, the first signs of sedation produced by the intragastric administration of 7.5 mg/kg of compounds 1 and 4 appeared, respectively, at 16 minutes (compound 1) and at 8 minutes (compound 4). […] The duration of the effect was, however, shorter, not exceeding 3 hours under these conditions in contrast to the 5 hour minimum for restricted animals.

[8] = Emotional conditioning response (CER) in rats (Brady, Skinner box); type: in vivo
Source text: The method utilized that was published by Brady (1956) using a Skinner Box and a combination of a sound, a light and an electrical shock to produce anxiety in the test animals.
The more an animal is anxious, the less important is the score. When a test compound is a powerful anxiolytic, the value of the score is proportional to the dosage.

[9] = Conditioned emotional response (CER), tone paired with foot shock; type: in vivo
Procedure: Conditioned emotional response (CER) in test animals was conventionally determined by a tone paired with a foot shock which was presented to hungry animals trained to press a lever for intermittent food reinforcement. After a few such pairings, the presence of the tone alone was sufficient to disrupt the lever pressing behavior. CER is considered a model of behavior anxiety in animals. […] Thus, a 1.25 mg/kg os of compounds 1 and 4 respectively produced about a 350 and 630% increase in CER while a 5 mg/kg os of compounds 1 and 4 respectively produced about 920 and 1600% increase.

[10] = Effect on muscular relaxation in mice (30° inclined screen, Randall); type: in vivo
Procedure: The method utilized was the procedure described by Randall (1961) using a 30° inclined screen.

dorsal hippocampus = experiment: Hippocampal after-discharge (stimulation of dorsal hippocampus); type: in vivo; conditions: 7.5 mg/kg intragastric; for Duration of Hippocampal After-Discharge: individual animals
Procedure: The test animals for this study were also prepared according to the technique described by Monnier and Gangloff (infra B, page 30) and the animals were kept in restraint cages in a relatively soundproof room.
The activity of test compounds 1 and 4 was assessed in identical groups of test animals for each compound, with identical numbers of animals for hippocampal after-discharges and for amygdaloid after-discharges. A dose of 7.5 mg/kg of each test compound was adminstered by the intragastric route. In each animal, after-discharges were triggered every 45 minutes after the administration of a test compound.
The stimulation consisted of a series of waves with a duration of 3 m sec., delivered at a frequency of 40 c/sec., with 5 seconds as the total duration of the stimulation. The shocks were delivered by a Neurovar neurostimulator (Alvar Electronic), coupled to a CRC cathode oscilloscope (type OC 343). Cerebral electric activity was recorded by REEGA MINI HUIT electroencephalograph (Alvar Electronic).

[11] = Postural tonus in restrained animals; type: in vivo; conditions: more pronounced effect of compound 4 especially at 30 mg/kg
Source text: The final observations were concerned with the influence of the test compounds on postural tonus. Evaluationg postural tonus in the animals kept in restraint cages was somewhat difficult. It was possible to judge this aspect by pulling the hind quarters of the animals out of the cage and observing whether the animals was capable of returning spontaneously to its position inside the cage, which control animals were able to do immediately.

[12] = Convulsions induced by pentamethylenetetrazol in rats; type: in vivo
Procedure: The method utilized was according to the method published by Everett and Richards (1944) and Banziger (1965). The pentamethylenetetrazol was given subcutaneously (125 mg/kg) and the test compounds were given orally suspended in a 1% carboxymethyl cellulose solution.

[13] = 7.5 mg/kg intragastric, animals free to move

Compound: C#CCN1C(=O)CN=C(c2ccccc2)c2cc(Cl)ccc21 [Compound 1, 7-chloro-2,3-dihydro-5-phenyl-1-propargyl-1H-1,4-benzodiazepin-2-one]
- Rotarod Test % of Animals With Unchanged Equilibrium ([1]; 1 mg/kg): 41.7%
- Rotarod Test % of Animals With Unchanged Equilibrium ([1]; 3 mg/kg): 58.3%
- changes in equilibrium / motor coordination ([1]; in vivo): does not produce changes in motor activity or in equilibrium
- ED50 ([2]; 1 h, 60 min. after administration, doses between 0.5 and 4 mg/kg, confidence limits for P = 0.05): 1.75 mg/kg
- Duration of effect ([2]; compounds 1 and 4 compared): comparable
- median anxiolytic dose (AD50) compared with compound 4 ([2]; four-plate study): nearly three times less than that of compound 4
- anxiolytic effect compared with compound 4 ([2]; in vivo): more effective anxiolytic effect than compound 4
- narcotic effect of a minimal dose of Veronal [3]: potentiate the narcotic effect of a minimal dose of Veronal
- oral toxicity compared with Compounds 3 or 4 ([4]; po): lower oral toxicity
- LD50 ([4]; Table 11, oral, species not given): 5820 mg/kg
- % Uncoordinated Animals ([5]; 48 mg/kg/os): 25%
- % Uncoordinated Animals ([5]; 68 mg/kg/os): 50%
- % Uncoordinated Animals ([5]; 96 mg/kg/os): 75%
- dose needed for same motor uncoordination as after Compound 3 or 4 ([5]; oral): about five times more
- TD50 ([5]; rat, rotarod, po): 67.9 mg/kg
- % Decrease (conditioned avoidance responses) ([6]; 5 mg/kg oral): -12%
- Number of Conditioned Avoidance Responses ([6]; 5 mg/kg oral): 14.5 ± 0.7
- % Decrease (conditioned avoidance responses) ([6]; 10 mg/kg oral): -19%
- Number of Conditioned Avoidance Responses ([6]; 10 mg/kg oral): 13.4 ± 0.7
- % Decrease (conditioned avoidance responses) ([6]; 20 mg/kg oral): -17%
- Number of Conditioned Avoidance Responses ([6]; 20 mg/kg oral): 13.7 ± 0.9
- % Decrease (conditioned avoidance responses) ([6]; 40 mg/kg oral): -44%
- Number of Conditioned Avoidance Responses ([6]; 40 mg/kg oral): 9.3 ± 1.5
- activity in reducing conditioned avoidance responses compared with Compound 2 ([6]; in vivo): less active than Compound 2
- duration of the ECoG effect [7, 13]: ≤ 3 h
- first signs of sedation [7, 13]: 16 min
- duration of ECoG effects (three compounds compared) ([7]; unrestricted animals, compound 3 at 10 mg/kg): about 31/2
- Number of Responses, After - CER ([8]; 1.25 mg/kg/os): 77.83 ± 20.41
- Number of Responses, Before - CER ([8]; 1.25 mg/kg/os): 94.67 ± 13.86
- Number of Responses, CER ([8]; 1.25 mg/kg/os): 27.50 ± 11.32
- Number of Responses, After - CER ([8]; 2.5 mg/kg/os): 112.30 ± 17.56
- Number of Responses, Before - CER ([8]; 2.5 mg/kg/os): 142.10 ± 20.03
- Number of Responses, CER ([8]; 2.5 mg/kg/os): 62.10 ± 9.59
- Number of Responses, After - CER ([8]; 5 mg/kg/os): 128.75 ± 17.13
- Number of Responses, Before - CER ([8]; 5 mg/kg/os): 127.13 ± 20.89
- Number of Responses, CER ([8]; 5 mg/kg/os): 63.50 ± 14.96
- activity in antagonizing CER compared with Compound 3 ([8]; rat, in vivo): about twice as active as Compound 3
- effectiveness in reducing anxiety compared with Composition 4 ([8]; rat, in vivo): twice as effective in reducing anxiety as Composition 4
- increase in CER ([9]; 1.25 mg/kg os): ~350%
- increase in CER ([9]; 5 mg/kg os): about 920%
- activity in antagonizing tone-induced disruption compared with Compound 4 ([9]; in vivo): about twice as active as Compound 4
- % Relaxed Animals ([10]; 5 mg/kg/os): 10%
- % Relaxed Animals ([10]; 10 mg/kg/os): 20%
- % Relaxed Animals ([10]; 20 mg/kg/os): 50%
- % Relaxed Animals ([10]; 40 mg/kg/os): 70%
- ED50 ([10]; Mus musculus, po, muscular relaxation, read-out: ED50 (and C.L.)): 21.5 mg/kg
- times less relaxant than compound 3 ([10]; mouse, in vivo): about 1.5 times
- times less relaxant than compound 4 ([10]; mouse, in vivo): about 5.6 times
- effect on duration of hippocampal after-discharge (dorsal hippocampus): markedly increased the duration of after-discharges
- Duration of Hippocampal After-Discharge (dorsal hippocampus; 45 Mins.): 25 s and 14 s and 23 s and 18 s
- Duration of Hippocampal After-Discharge (dorsal hippocampus; 90 Mins.): 27 s and 21 s and 25 s and 11 s and 23 s
- Duration of Hippocampal After-Discharge (dorsal hippocampus; 135 Mins.): 27 s and 16 s and 26 s and 19 s and 25 s
- Duration of Hippocampal After-Discharge (dorsal hippocampus; 180 Mins.): 25 s and 23 s and 24 s and 27 s
- Duration of Hippocampal After-Discharge (dorsal hippocampus; 225 Mins.): 29 s and 26 s and 25 s and 23 s and 34 s
- Duration of Hippocampal After-Discharge (dorsal hippocampus; 270 Mins.): 23 s and 26 s and 21 s and 40 s
- reduction in postural tonus [11]: slight reduction in the tonus
- % Protected Animals ([12]; 5 mg/kg/os, pentamethylenetetrazol 125 mg/kg s.c.): 10%
- % Protected Animals ([12]; 10 mg/kg/os, pentamethylenetetrazol 125 mg/kg s.c.): 50%
- % Protected Animals ([12]; 20 mg/kg/os, pentamethylenetetrazol 125 mg/kg s.c.): 80%
- ED50 ([12]; Rattus norvegicus, oral, protection against pentamethylenetetrazol, read-out: ED50 (and C.L.) (converted)): 10.6 mg/kg
- % Protected Animals ([12]; Time 90 min.): 48%
- % Protected Animals ([12]; Time 120 min.): 46%
- % Protected Animals ([12]; Time 180 min.): 37%
- % Protected Animals ([12]; Time 240 min.): 10%
- duration of protection against pentamethylenetetrazol compared with compounds 3 or 4 ([12]; rat, in vivo): protects against pentamethylenetetrazol for longer periods of time than compounds 3 or 4
